# Measurements reported in PMC10531311, “Anti-Inflammatory Activities of 8-Benzylaminoxanthines Showing High Adenosine A2A and Dual A1/A2A Receptor Affinity” (International Journal of Molecular Sciences, 2023).
# Read-outs that look alike come from different tables or passages of the source.
# Columns and labels:
# human adenosine A1R = molecular target: T1, human adenosine A1R (Homo sapiens, UniProt P30542); conditions: cited from earlier work; for Ki: human
# T1 construct: expressed in transfected cells; host or cells: CHO cells
# T1 sequence (P30542 1-326): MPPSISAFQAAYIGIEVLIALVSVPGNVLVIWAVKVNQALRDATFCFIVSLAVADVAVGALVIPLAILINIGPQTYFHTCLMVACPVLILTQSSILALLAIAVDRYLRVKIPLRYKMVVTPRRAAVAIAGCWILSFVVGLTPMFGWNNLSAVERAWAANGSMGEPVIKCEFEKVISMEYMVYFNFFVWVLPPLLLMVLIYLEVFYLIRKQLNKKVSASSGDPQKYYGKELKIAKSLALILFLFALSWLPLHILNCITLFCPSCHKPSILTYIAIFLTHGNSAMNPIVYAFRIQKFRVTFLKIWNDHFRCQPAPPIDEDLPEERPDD
# human adenosine A2AR = molecular target: T2, human adenosine A2AR (Homo sapiens, UniProt P29274); conditions: cited from earlier work
# T2 construct: expressed in transfected cells; host or cells: CHO cells
# [1] = molecular target: other adenosine receptors; conditions: cited from earlier work
# [2] = test system: carrageenan-induced edema in rats; design: method as in PMID 32629282; conditions: 20 mg/kg ip; cited from earlier work
# [3] = PAMPA blood brain barrier permeability; format: in vitro ADME
# Procedure: The ability of compounds, especially those intended to act in the CNS, to penetrate the blood-brain barrier (BBB) is an important property to consider in the initial stages of drug candidate screening. The PAMPA assay is a commonly used test to assess the passive permeation of the BBB [17]. In our study, caffeine was used as a highly permeable compound. […] After 5 h of incubation at room temperature, the results were analyzed by LC-MS, and the permeability coefficients (Pe) were calculated.
# For permeability evaluation, a PAMPA Gentest™ pre-coated […] system, provided by Corning (Tewksbury, MA, USA), was used. The precise procedure was previously described. The permeability coefficient Pe was calculated based on the given equations. Concentrations of the tested compounds in the apical and basolateral wells were determined by LC/MS analysis using an internal standard.
# [4] = design: method as in PMID 30254599; conditions: LPD and ibotenate models; cited from earlier work
# [5] = design: method as in PMID 21235574; conditions: animal studies; cited from earlier work
# human adenosine A2BR = molecular target: T3, human adenosine A2BR (Homo sapiens, UniProt P29275); design: method as in PMID 32629282; conditions: cited from earlier work
# T3 construct: expressed in transfected cells; host or cells: CHO cells
# T3 sequence (P29275 1-332): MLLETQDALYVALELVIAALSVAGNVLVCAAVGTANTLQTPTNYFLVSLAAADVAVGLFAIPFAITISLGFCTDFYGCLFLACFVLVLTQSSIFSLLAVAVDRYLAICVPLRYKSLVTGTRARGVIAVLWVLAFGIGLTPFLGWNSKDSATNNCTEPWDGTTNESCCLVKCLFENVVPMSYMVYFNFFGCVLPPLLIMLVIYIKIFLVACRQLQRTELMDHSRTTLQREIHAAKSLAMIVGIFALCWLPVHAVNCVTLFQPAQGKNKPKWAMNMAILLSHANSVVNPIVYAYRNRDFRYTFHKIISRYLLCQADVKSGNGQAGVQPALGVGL
# human adenosine A3R = molecular target: T4, human adenosine A3R (Homo sapiens, UniProt P0DMS8); design: method as in PMID 32629282; conditions: cited from earlier work
# T4 construct: expressed in transfected cells; host or cells: CHO cells
# T4 sequence (P0DMS8 1-318): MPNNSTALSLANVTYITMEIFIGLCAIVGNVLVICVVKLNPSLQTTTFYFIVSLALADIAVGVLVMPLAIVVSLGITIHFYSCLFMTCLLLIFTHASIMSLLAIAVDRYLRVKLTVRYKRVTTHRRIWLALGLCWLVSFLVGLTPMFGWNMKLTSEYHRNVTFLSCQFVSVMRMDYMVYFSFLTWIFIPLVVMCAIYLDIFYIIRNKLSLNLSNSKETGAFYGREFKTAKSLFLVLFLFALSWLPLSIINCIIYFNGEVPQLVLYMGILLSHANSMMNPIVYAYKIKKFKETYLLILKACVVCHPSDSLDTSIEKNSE
# [6] = test system: carrageenan-induced edema in mice; design: method as in PMID 25735490; conditions: 100 mg/kg ip, cited from earlier work
# [7] = selectivity towards other adenosine receptors
# T2 sequence (P29274 whole entry): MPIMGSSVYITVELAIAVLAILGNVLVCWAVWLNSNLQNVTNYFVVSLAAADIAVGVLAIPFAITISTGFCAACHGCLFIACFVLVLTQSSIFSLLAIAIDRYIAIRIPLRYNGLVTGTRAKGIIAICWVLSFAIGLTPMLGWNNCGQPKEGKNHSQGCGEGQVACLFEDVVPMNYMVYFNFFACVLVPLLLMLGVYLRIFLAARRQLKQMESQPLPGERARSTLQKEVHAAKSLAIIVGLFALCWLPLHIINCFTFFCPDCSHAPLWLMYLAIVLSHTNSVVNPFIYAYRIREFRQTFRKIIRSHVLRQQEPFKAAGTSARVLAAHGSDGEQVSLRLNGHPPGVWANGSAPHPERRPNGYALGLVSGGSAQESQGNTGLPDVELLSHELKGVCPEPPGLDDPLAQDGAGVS
compound,measurement,setting,value
CCn1c(=O)c2c(nc(NCc3cccc(OC)c3F)n2C)n(C)c1=O [compound 1],Ki,human adenosine A1R; read-out: hA1R Ki,> 1000 nM
same,Ki,human adenosine A2AR; read-out: A2AR Ki,69 nM
same,Ki,[1]; [7],> 1000 nM
same,"inhibition of edema, 2nd hour",[2],44%
same,"inhibition of edema, 3rd hour",[2],53%
"Cn1c(=O)c2c(ncn2C)n(C)c1=O [Caffeine, reference compound]",Drug Retention,[3],29.46%
same,"Papp at 5 h, 100 μM","[3]; 100 μM in PBS, 5 h, room temperature, triplicate, read-out: Pe ± SD",6.57 ± 1.57 ×10⁻⁶ cm/s
same,"Papp at 5 h, 100 μM",[3]; read-out: Permeable,≥ 1.5 ×10⁻⁶ cm/s
Nc1nc2c(cnn2CCc2ccccc2)c2nc(-c3ccco3)nn12 [SCH-58261],"effect on pro-inflammatory factors (IL-1ß, IL-6, iNOS, TNF alpha) (in words)",[4],caused a decrease in the above-mentioned cytokines
same,effect in LPS-induced inflammation model (in words),[5],beneficial effects
CCn1c(=O)c2c(nc(NCc3ccccc3Cl)n2C)n(C)c1=O [compound 2],A1R % Inhibition ± SEM at 1 µM,human adenosine A1R; 1 µM,22 ± 1%
same,Ki,human adenosine A1R; read-out: A1R Ki,> 1000 nM
same,A2BR % Inhibition ± SEM at 1 µM,human adenosine A2BR; 1 µM,44 ± 10%
same,Ki,human adenosine A2BR; human,> 1000 nM
same,A3R % Inhibition ± SEM at 1 µM,human adenosine A3R; 1 µM,14 ± 1%
same,Ki,human adenosine A3R; human,> 1000 nM
same,Ki,human adenosine A2AR; read-out: A2AR Ki,71 ± 6 nM
same,Ki,[1],> 1000 nM
Cn1c(=O)c2c(nc3n2CCCN3CCc2ccc(O)cc2)n(C)c1=O [KD-114],Ki,human adenosine A1R; read-out: hA1R Ki,> 25000 nM
same,reduction of edema volume,"[6]; 1st, 2nd and 3rd hour",> 90%
same,edema at the first hour with the tested compound,[6]; control 64%,2%
same,Ki,human adenosine A2AR; read-out: hA2AR Ki,230 nM
same,Ki,[1]; [7],> 1000 nM
